Article PMC7984254 (Biochimica et biophysica acta. Molecular cell research, 2020)
Each block holds one molecule with its values, some of them ahead of it.

Legend:
[1] = biological target: FGF14:Nav1.6 complex (CLuc-FGF14 and CD4-Nav1.6 C-tail-NLuc) (Homo sapiens, UniProt Q92915+Q9UQD0); assay: cell-based; details: for activity at 30 µM: HEK293, 2 h, read-out: % luminescence, FGF14:Nav1.6 complex (HTS); for initial dose/concentration dependency against FGF14:Nav1.6: screening library compound, Suppl. Fig. 3
Nav1.6 = assay: Whole-cell patch-clamp electrophysiology in HEK-Nav1.6 cells; assay type: cell-based, human
[2] = tested on: hippocampal CA1 pyramidal neurons; assay: Ex vivo patch-clamp of hippocampal CA1 pyramidal neurons in brain slices; assay type: cell-based, mice; details: 20 μM
FGF14^Y158A:Nav1.6 = FGF14^Y158A:Nav1.6 (Homo sapiens, UniProt Q92915+Q9UQD0, Y153A); assay: LCA dose response, FGF14^Y158A:Nav1.6 mutant complex
[3] = tested on: double stable HEK293 cells; assay: CellTiter-Blue; assay type: cell-based; details: 30 μM; fluorescence read after 16 h; relative to DMSO controls
[4] = biological target: FGF14:FGF14 dimer (CLuc-FGF14 and FGF14-NLuc) (Homo sapiens, UniProt Q92915); assay: LCA counter-screen and dose response, FGF14:FGF14 homodimer; assay type: cell-based; details: plateau; normalized to 0.3% DMSO

initial dose/concentration dependency against FGF14:Nav1.6 [1]: less ideal
SMILES: Cc1ccc2c(=O)c3ccccc3n(CCCN)c2c1C.O=C(O)C(=O)O [ER 27319]

effect on FGF14^Y158A:Nav1.6 complex compared with FGF14^WT (FGF14^Y158A:Nav1.6): abolished
SMILES: N#CCNC(=O)c1ccc(-c2ccnc(Nc3ccc(N4CCOCC4)cc3)n2)cc1 [Momelotinib]

initial dose/concentration dependency against FGF14:Nav1.6 [1]: promising concentration dependency
SMILES: NC(=O)c1cnc(N[C@@H]2CCCC[C@@H]2N)nc1Nc1cccc(-n2nccn2)c1 [PRT062607]

effect on FGF14^Y158A:Nav1.6 complex compared with FGF14^WT (FGF14^Y158A:Nav1.6): abolished
SMILES: C1=C/COCc2cc(ccc2OCCN2CCCC2)Nc2nccc(n2)-c2cccc(c2)COC/1 [Pacritinib]

FGF14:FGF14^WT IMin/EMax [4]: 150.6 percent luminescence
FGF14^Y158A:Nav1.6 IMin/EMax (FGF14^Y158A:Nav1.6; plateau, normalized to 0.3% DMSO): 78.0 percent luminescence
SMILES: Cc1cnc(Nc2ccc(N3CCN(C)CC3)cc2)nc1Nc1cccc(S(=O)(=O)NC(C)(C)C)c1 [TG101209]

Continued, molecule first:

SMILES: CC(C)(O)/C=C/C(=O)[C@](C)(O)[C@H]1[C@H](O)C[C@@]2(C)[C@@H]3CC=C4[C@@H](C=C(O)C(=O)C4(C)C)[C@]3(C)C(=O)C[C@]12C [Cucurbitacin I]
activity at 30 µM [1]: 5.6%
initial dose/concentration dependency against FGF14:Nav1.6 [1]: highly potent but undesirable curve shape

SMILES: Cc1cnc(Nc2ccc(OCCN3CCCC3)cc2)nc1Nc1cccc(S(=O)(=O)NC(C)(C)C)c1 [Fedratinib]
V½ of activation (Nav1.6; HEK-Nav1.6 FGF14-GFP, 20 μM): −30.56 ± 1.9 mV
V½ of steady-state inactivation (Nav1.6; HEK-Nav1.6 FGF14-GFP, 20 μM): −60.8 ± 1.2 mV
decay time constant (τ) of INa (Nav1.6; HEK-Nav1.6 FGF14-GFP, 20 μM): 1.4 ± 0.06 ms
peak transient Na+ current (INa) density (Nav1.6; HEK-Nav1.6 FGF14-GFP, 20 μM): −81.27 ± 11.3 pA/pF
long-term inactivation (LTI), normalized INa at pulse 3 (Nav1.6; HEK-Nav1.6 FGF14-GFP, 30 min incubation, pulse 3): 0.89 ± 0.02%
effect on long-term inactivation (LTI) (Nav1.6; HEK-Nav1.6 FGF14^Y158A): no effect
peak transient Na+ current (INa) density (Nav1.6; HEK-Nav1.6 FGF14^Y158A-GFP, 20 μM): −26.65 ± 3.5 pA/pF
V½ of activation (Nav1.6; HEK-Nav1.6 FGF14^Y158A, 20 μM): −22.69 ± 1.2 mV
V½ of steady-state inactivation, change compared to DMSO (Nav1.6; HEK-Nav1.6 FGF14^Y158A, 20 μM): no significant change
decay time constant (τ) of INa (Nav1.6; HEK-Nav1.6 FGF14^Y158A, 20 μM): 1.8 ± 0.11 ms
peak transient Na+ current (INa) density (Nav1.6; HEK-Nav1.6 GFP (channel alone), 20 μM): −59.43 ± 6.0 pA/pF
V½ of activation (Nav1.6; HEK-Nav1.6 GFP, 20 μM): −25.7 ± 1.7 mV
V½ of steady-state inactivation (Nav1.6; HEK-Nav1.6 GFP, 20 μM): −61.7 ± 1.0 mV
decay time constant (τ) of INa (Nav1.6; HEK-Nav1.6 GFP, 20 μM): 1.3 ± 0.07 ms
resting membrane potential, current threshold and voltage threshold for action potential firing ([2]; Fgf14^+/+ mice): no significant changes
maximum number of evoked action potentials (AP) ([2]; Fgf14^+/+ mice, 1 hr slice incubation): 11.3 ± 1.4
evoked action potentials ([2]; Fgf14^−/− mice, 1 hr slice incubation): 11.8 ± 2.7

SMILES: O=C(Nc1ccc([N+](=O)[O-])cc1Cl)c1cc(Cl)ccc1O [Niclosamide]
activity at 30 µM [1]: 18.7%

SMILES: O=[N+]([O-])c1ccc2c(c1)S(=O)(=O)C=C2 [Stattic]
% fluorescence from the CTB assay (cell viability) [3]: 57.2%

SMILES: C[C@H]1[C@H](C)CC[C@]2(C(=O)O)CC[C@]3(C)C(=CC[C@@H]4[C@@]5(C)CC[C@H](O)C(C)(C)[C@@H]5CC[C@]43C)[C@H]12 [Ursolic Acid]
activity at 30 µM [1]: 104%
